Structures can show the parent of a compound that is named as a salt.
Tests used:
Format in all cases: in vivo, Drosophila melanogaster
[1] = test system: Drosophila KCNT1 mutant line R398Q; assay: Bang-sensitive behavioral seizure assay, Drosophila KCNT1 mutant line R398Q; conditions: drug in food
Source text: (§1) The Drosophila melanogaster lines carrying the WT human KCNT1 transgene (NM_020822_3) or KCNT1 mutant G288S, R398Q or R928C transgene placed downstream of the yeast UAS promoter, have been described previously.[11] WT or mutant human UAS‐KCNT1 flies were crossed to flies expressing the GAL4 transcriptional activator under the control of the GAD1 promoter (GABAergic driver, Bloomington stock number 51630 P2) to drive expression of KCNT1 in GABAergic neurons, involved in neuronal inhibition.[11]
(§2) The bang‐sensitive behavioral assay (also known as the banging assay) was used to test for the presence of a seizure phenotype in Drosophila.[11], [30] Experiments were performed and scored, as previously described,[11] with a minimum of 50 Drosophila tested for each genotype and drug concentration.
(§3) Four drugs were selected for in vivo analysis to determine their effects on the seizure phenotypes in transgenic Drosophila lines with human mutant KCNT1 channels. […]
(§4) In all experiments, experimenters were not blinded to variants or treatments, nor were samples randomly assigned to groups. Sample sizes were not calculated in advance and no data were excluded from the analysis. Data were analyzed using GraphPad Prism 9 software (San Diego, CA, USA). […] All data passed normality and lognormality Shapiro–Wilk tests, determined by GraphPad Prism 9. […]

[2] = test system: Drosophila KCNT1 mutant line R928C; assay: Bang-sensitive behavioral seizure assay, Drosophila KCNT1 mutant line R928C; conditions: drug in food
Source text: as §1, §2, §3, §4

[3] = test system: Drosophila mutant KCNT1 lines (G288S, R398Q, R928C); assay: Bang-sensitive behavioral seizure assay, statements for all three Drosophila mutant KCNT1 lines; conditions: for effect on seizure activity (in words): drug in food, 1 nM to 1 μM, each of the three mutant lines
Source text: as §1, §2
Four drugs were selected for in vivo analysis to determine their effects on the seizure phenotypes in transgenic Drosophila lines with human mutant KCNT1 channels. Bepridil, a nonselective KCNT1 inhibitor was included for comparison. Drosophila food with and without drugs was prepared as previously described.[11] All chemicals were obtained from Sigma‐Aldrich (Gillingham, UK) apart from antrafenine hydrochloride (Toronto Research Chemicals, Canada) and regorafenib (USP, Germany).
Drosophila crosses were set up, and the resulting embryos were collected, as previously described.[11] A range of concentrations of each drug dissolved in Drosophila food, between 0.001 μM and 1 μM, were used in the experiments. Multiple replicates were performed for each dosage of the drugs and controls. Controls were vehicle controlled (VC), which was the normal food with just the solvent ethanol present (1 μl/1 ml) in the Drosophila food, and normal food (NF) control where no drug or solvent (ethanol) was added in the Drosophila food.
In all experiments, experimenters were not blinded to variants or treatments, nor were samples randomly assigned to groups. Sample sizes were not calculated in advance and no data were excluded from the analysis. Data were analyzed using GraphPad Prism 9 software (San Diego, CA, USA). All values are reported as mean ± standard error of the mean (SEM). All data passed normality and lognormality Shapiro–Wilk tests, determined by GraphPad Prism 9. In the experiments analyzing the effects of drugs in Drosophila, statistical significance of differences between groups was determined using Brown‐Forsythe and Welch's analysis of variance (ANOVA) tests (Supplementary Table S3), assuming non‐equal SDs, followed by Dunnett's multiple comparisons tests (GraphPad Prism 9). The results of the Dunnett's multiple comparisons tests are shown in Supplementary Table S4, where “N” represents independent trials using independent fly crosses, with the total number of flies for each condition shown in brackets.

[4] = test system: Drosophila KCNT1 mutant line G288S; assay: Bang-sensitive behavioral seizure assay, Drosophila KCNT1 mutant line G288S; conditions: drug in food
Source text: as §1, §2, §3, §4

| SMILES | reduction of the seizure phenotype [1] | reduction of the seizure phenotype [2] [%] | effect on seizure activity (in words) [3] | reduction of the seizure phenotype [4] | viability of adult flies ([3]; 1 μM in food) |
| --- | --- | --- | --- | --- | --- |
| O=C(OCCN1CCN(c2cccc(C(F)(F)F)c2)CC1)c1ccccc1Nc1ccnc2cc(C(F)(F)F)ccc12 [antrafenine] | at least 50% | 25 | significantly reduce the seizure activity | at least 50% |  |
| Cc1c(O)cccc1C(=O)N[C@@H](CSc1ccccc1)[C@H](O)CN1C[C@H]2CCCC[C@H]2C[C@H]1C(=O)NC(C)(C)C [nelfinavir mesylate] | 50% | 50 | significantly reduce the seizure activity | 50% |  |
| CNC(=O)c1cc(Oc2ccc(NC(=O)Nc3ccc(Cl)c(C(F)(F)F)c3)c(F)c2)ccn1 [regorafenib] |  |  | did not show a significant effect |  |  |
| CC(C)c1c(C(=O)Nc2ccccc2)c(-c2ccccc2)c(-c2ccc(F)cc2)n1CC[C@@H](O)C[C@@H](O)CC(=O)O [atorvastatin] |  |  | did not show a significant effect |  | reduced viability |
